Tests used:
[1] = system: HCV genotype 1b (HCV-1b) replicon cells; test: HCV genotype 1b replicon luciferase assay (EC50); assay type: cell-based, hepatitis C virus genotype 1b (Con1 clone); settings: 3 days, luciferase (Bright-Glo)
Method in brief: (§1)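 H77-derived 1a (K1691R, K2040R, S2204I) or Con1-derived 1b (E1202G, T1280I, K1846T) luciferase replicon cells, 8000/well, exposed 3 days at 37° C. to 6-point 5-fold dilutions (top 100, 10 or 1 nM; 0.5% DMSO), in duplicate. Bright-Glo luminescence read; EC50 from nonlinear fit of % inhibition.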

[2] = system: HCV genotype 1a (HCV-1a) replicon cells; test: HCV genotype 1a replicon luciferase assay (EC50); assay type: cell-based, hepatitis C virus genotype 1a (H77 clone); settings: 3 days, luciferase (Bright-Glo)
Method in brief: as §1

[3] = Cell Titer-fluor cell activity assay in HCV-1b replicon cells (CC50); assay type: cell-based
Method in brief: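 Con1 genotype 1b replicon cells (E1202G, T1280I, K1846T adaptive mutations), 8000 cells/well, exposed to 6-point 5-fold dilutions from 100, 10 or 1 nM top concentration in 0.5% DMSO, duplicate wells, 3 days at 37 °C. Viability read by Cell Titer-fluor (Ex 405/Em 515 nm) after 30 min; CC50 from nonlinear fit of inhibition %.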

Structure (SMILES) | EC50 ([1]; Hepatitis C virus, 72 h) [nM] | EC50 ([2]; Hepatitis C virus, 72 h) [nM] | CC50 at 3 days [3] [nM] | EC50 [1] [nM] | EC50 [2] [nM]
COC(=O)N[C@H](C(=O)N1CCC[C@H]1c1[nH]c(-c2ccc(-c3ccc(-c4cnc(C5C6CCC(C6)[C@@H]5C(=O)N(NC(=O)OC)C(C)C)[nH]4)cc3)cc2)c2c1CCC2)C(C)C (stereo partly drawn) [AA_155] | 1 to 10 | 10 to 100 | > 100 | – | –
COC(=O)N[C@H](C(=O)N1CCC[C@H]1c1cnc(-c2ccc(-c3ccc(-c4ncc(C5C6CCC(C6)[C@H]5C(=O)N(NC(=O)OC)C(C)C)[nH]4)cc3)cc2C)[nH]1)C(C)C (stereo partly drawn) [AA_169_A] | 0.001 to 0.1 | 1 to 10 | > 5 | – | –
COC(=O)N[C@H](C(=O)N1CCC[C@H]1c1ncc(-c2ccc(-c3ccc(-c4cnc([C@@H]5[C@H]6CC[C@H](C6)[C@H]5C(=O)N[C@@H](CO)c5cccnc5)[nH]4)cc3)cc2)[nH]1)C(C)C [AA_243_ENDOA2_A] | 0.001 to 0.1 | 1 to 10 | > 1 | – | –
COC(=O)N[C@H](C(=O)N1CCC[C@H]1c1ncc(-c2ccc(-c3ccc(-c4cnc([C@@H]5[C@H]6CC[C@H](C6)[C@H]5C(=O)N[C@H](C)c5cnccn5)[nH]4)cc3)cc2)[nH]1)C(C)C [AA_270_ENDOA2_B] | 0.001 to 0.1 | 1 to 10 | > 1 | – | –
COC(=O)N[C@H](C(=O)N1CCC[C@H]1c1ncc(-c2ccc(-c3ccc(-c4cnc(C5C6CCC(C6)[C@H]5C(=O)NCc5ccncc5)[nH]4)cc3)cc2)[nH]1)[C@@H](C)OC (stereo partly drawn) [AA_248_A] | 0.101 to 1 | 10 to 100 | > 1 | – | –
COC(=O)N[C@H](C(=O)N1CCC[C@H]1c1ncc(-c2ccc(-c3ccc(-c4[nH]c(C5CCCN5C(=O)[C@@H]5COC(=O)N5)c5c4CCC5)cc3)cc2)[nH]1)C(C)C (stereo partly drawn) [AG_084_A] | 0.101 to 1 | 1 to 10 | > 1 | – | –
COC(=O)N[C@H](C(=O)N1CCCC1c1ccc(-c2ccc(-c3ccc(-c4cnc([C@@H]5CCCN5C(=O)[C@@H](NC(=O)OC)[C@@H](C)OC)[nH]4)cc3)cc2)[nH]1)[C@@H](C)OC (single isomer, unassigned) [AG_072_A] | – | – | > 1 | 0.001 to 0.1 | 0.001 to 0.1
COC(=O)N[C@H](C(=O)N1CCC[C@H]1c1ncc(-c2ccc(-c3ccc(-c4cnc([C@@H]5C6CCC(C6)[C@H]5C(=O)NCc5ccco5)[nH]4)cc3)cc2)[nH]1)C(C)C (stereo partly drawn) [AA_198_B] | 0.001 to 0.1 | 10 to 100 | > 1 | – | –
COC(=O)N[C@H](C(=O)N1CCC[C@H]1c1ncc(-c2ccc(-c3ccc(-c4cnc(C5C6CCC(C6)[C@@H]5C(=O)N(NC(=O)OC)C(C)C)[nH]4)cc3)cc2Cl)[nH]1)C(C)C (stereo partly drawn) [AA_156] | 0.001 to 0.1 | 1 to 10 | > 1 | – | –
COC(=O)N[C@H](C(=O)N1CCC[C@H]1c1ncc(-c2ccc(-c3ccc(-c4cnc([C@H]5C6CCC(C6)[C@@H]5C(=O)NNc5nccnc5Cl)[nH]4)cc3)cc2)[nH]1)C(C)C (stereo partly drawn) [AA_244_A] | 0.101 to 1 | 10 to 100 | > 1 | – | –
COC(=O)N[C@H](C(=O)N1CCC[C@H]1c1[nH]c(-c2ccc(-c3ccc(-c4cnc([C@@H]5CCCN5C(=O)[C@@H](NC(=O)OC)[C@@H](C)O)[nH]4)cc3)cc2)c2c1COC2)C(C)C [AG_104] | 0.001 to 0.1 | 0.001 to 0.1 | > 1 | – | –
COC(=O)N[C@H](C(=O)N1CCC[C@H]1c1ncc(-c2ccc(-c3ccc(-c4cnc([C@H]5C6CCC(C6)[C@@H]5C(=O)NCc5cccc(N)c5)[nH]4)cc3)cc2)[nH]1)C(C)C (stereo partly drawn) [AA_199_A] | 0.001 to 0.1 | 1 to 10 | > 1 | – | –
COC(=O)N[C@H](C(=O)N1CCC[C@H]1c1ncc(-c2ccc(-c3ccc(-c4cnc(C5C6CCC(C6)[C@H]5C(=O)NCCO)[nH]4)cc3)cc2)[nH]1)[C@@H](C)OC (stereo partly drawn) [AA_220_A] | 0.101 to 1 | 10 to 100 | > 1 | – | –
COC(=O)N[C@H](C(=O)N1CCC[C@H]1c1ncc(-c2ccc3c(c2)C(=O)c2cc(-c4cnc(C5C6CCC(C6)[C@H]5C(=O)NCc5cccnc5)[nH]4)ccc2-3)[nH]1)C(C)C (stereo partly drawn) [AA_239] | 0.001 to 0.1 | 1 to 10 | > 1 | – | –
COC(=O)N[C@H](C(=O)N1CCC[C@H]1c1ncc(-c2ccc(-c3ccc(-c4cnc(C5C6CCC(C6)[C@H]5C(=O)N(C)c5ccccn5)[nH]4)cc3)cc2)[nH]1)[C@@H](C)OC (stereo partly drawn) [AA_247_B] | 0.001 to 0.1 | 1 to 10 | > 1 | – | –
COC(=O)N[C@H](C(=O)N1CCC[C@@H]1c1[nH]c(-c2ccc(-c3ccc(-c4cnc([C@@H]5CCCN5C(=O)[C@@H](NC(=O)OC)[C@@H](C)OC)[nH]4)cc3)cc2)c2c1COC2)C(C)OC (stereo partly drawn) [AG_080_B] | 0.101 to 1 | 1 to 10 | > 5 | – | –

From patent US10160771B2, “Hepatitis C virus inhibitors and uses thereof in preparation of drugs” (priority 2014, dated 2018)
